Laboratory results published in PubChem BioAssay (NCI).
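How tested: cells in 96-well plates exposed to compound for 48 hours at five concentrations. Here, GI50 denotes the concentration required for 50% inhibition of growth. Definition used: TGI = concentration required for complete inhibition of growth.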

Experiments:
Test in all cases: DTP human tumour cell line panel, 48 h
[1] = system: PC-3 prostate
[2] = system: HCT-15 colon
[3] = system: NCI/ADR-RES ovarian
[4] = system: IGROV1 ovarian
[5] = system: HCT-116 colon
[6] = system: SF-268 CNS
[7] = system: RPMI-8226 leukemia
[8] = system: MOLT-4 leukemia
[9] = system: SW-620 colon
[10] = system: CAKI-1 renal

SMILES	GI50 [1]	TGI [1]	GI50 [2]	TGI [2]	GI50 [3]	TGI [3]	GI50 [4]	TGI [4]	GI50 [5]	TGI [5]	GI50 [6]	TGI [6]	GI50 [7]	TGI [7]	GI50 [8]	TGI [8]	TGI [9]	TGI [10]	GI50 [9]	GI50 [10]
CCOC(=O)C1=C(C)N(N)C(=S)NC1c1ccc(C)cc1 (stereo not given)	32.8 µM	> 100 µM	9.1 µM	> 100 µM	61.9 µM	> 100 µM	28.2 µM	> 100 µM	65.3 µM	> 100 µM	67 µM	> 100 µM	44.7 µM	> 100 µM	45.7 µM	> 100 µM	–	–	–	–
CCOC(=O)CCc1c(C)c2c(OC(C)=O)cc(OC(C)=O)cc2oc1=O	–	–	–	–	–	–	–	–	–	> 100 µM	–	77.4 µM	–	–	–	–	> 100 µM	> 100 µM	–	–
CCOC(=O)N1CCN(C(=O)c2ccc(C(F)(F)F)nc2Nc2cc(Cl)ccc2C)CC1	7.71 µM	> 100 µM	23.1 µM	> 100 µM	15.4 µM	> 100 µM	1.38 µM	59.7 µM	12.3 µM	30.1 µM	74.8 µM	> 100 µM	11.4 µM	64.8 µM	6.63 µM	64.8 µM	92.9 µM	64.5 µM	15.4 µM	21.1 µM
Cc1n(Cc2ccc3ccccc3c2)cc[n+]1Cc1ccc2ccccc2c1	1.06 µM	11.6 µM	11.3 µM	25.1 µM	41.3 µM	> 100 µM	0.797 µM	2.87 µM	1.07 µM	4.4 µM	1.14 µM	8.69 µM	0.405 µM	1.89 µM	1.76 µM	5.61 µM	11.7 µM	–	1.77 µM	–
Cc1cc(C)n(CCNCCn2nc(C)cc2C)n1	–	–	–	> 1 µM	–	–	–	–	–	> 100 µM	–	> 100 µM	–	> 100 µM	–	> 100 µM	> 100 µM	> 100 µM	–	–
CN=NN(C)C(=O)NC	–	–	–	> 100 µM	–	–	–	> 100 µM	–	> 100 µM	–	> 100 µM	–	> 100 µM	–	> 100 µM	> 100 µM	> 100 µM	–	–
CCN(CC)CC(C)(C)C(=O)/C=C/c1ccc(Cl)c(Cl)c1	1.85 µM	3.51 µM	1.42 µM	2.92 µM	–	–	2.01 µM	4.95 µM	1.79 µM	3.2 µM	1.56 µM	3.22 µM	1.96 µM	5.47 µM	2.37 µM	8.11 µM	4.21 µM	2.74 µM	1.76 µM	1.35 µM
Cc1[nH][nH]c(=O)c1C=Nc1ccc(-c2nc3ccccc3[nH]2)cc1	80.8 µM	> 100 µM	22 µM	55.6 µM	–	–	24.6 µM	> 100 µM	–	–	14.4 µM	51.1 µM	38.2 µM	> 100 µM	52 µM	> 100 µM	55.7 µM	51.2 µM	25.6 µM	19.1 µM
COC(=O)/C=C/C1C(C(=O)OC)C2(C(=O)OC)CCC1(C(=O)OC)N2 (stereo not given)	–	–	–	> 100 µM	–	–	–	> 100 µM	–	> 100 µM	–	> 100 µM	–	> 100 µM	–	> 100 µM	> 100 µM	> 100 µM	–	–
CCCCCCCCCc1cc(=O)c2c(O)cccc2o1	–	–	–	> 100 µM	–	–	–	> 100 µM	–	> 100 µM	–	> 100 µM	–	> 100 µM	–	89.5 µM	> 100 µM	> 100 µM	–	–
O=S(O)CCCCSSCc1ccccc1CSSCCCCS(=O)O	–	–	–	> 100 µM	–	–	–	> 100 µM	–	–	–	39.3 µM	–	45.8 µM	–	14.5 µM	89.5 µM	81.8 µM	–	–
O=C(CCCN1CC=C(n2c(=O)[nH]c3ccccc32)CC1)c1ccc(F)cc1	29 µM	> 100 µM	37.4 µM	> 100 µM	22.9 µM	> 100 µM	> 100 µM	> 100 µM	28.5 µM	> 100 µM	–	–	30.4 µM	> 100 µM	30.5 µM	91.8 µM	> 100 µM	72.5 µM	53.5 µM	21.7 µM
CC(=O)Oc1ccccc1C(=O)N=C1[Se]CCN1C(=O)c1ccccc1OC(C)=O	1.06 µM	4.88 µM	–	–	–	–	–	–	0.32 µM	1.15 µM	0.483 µM	1.79 µM	2.94 µM	8.46 µM	0.621 µM	> 100 µM	6.09 µM	1.98 µM	1.52 µM	0.671 µM
N#CC(C#N)=c1[nH]c2cccc3c2-c2c(cccc2c3=C(C#N)C#N)[nH]1	–	–	–	> 100 µM	–	–	–	> 100 µM	–	> 100 µM	–	> 100 µM	–	> 100 µM	–	> 100 µM	> 100 µM	> 100 µM	–	–
C#C[C@]1(O)CC[C@H]2[C@@H]3CC=C4c5sc(Nc6ccccc6)nc5CC[C@]4(C)[C@H]3CC[C@@]21C	1.22 µM	43.5 µM	1.69 µM	6.47 µM	2.15 µM	> 100 µM	2.06 µM	5.5 µM	–	–	2.19 µM	10.1 µM	0.309 µM	1.6 µM	0.577 µM	12.4 µM	5.85 µM	4.41 µM	2.06 µM	1.64 µM
Cc1cn2c(/C=C3/C(=O)Nc4ccccc43)c(-c3ccc(Cl)cc3)nc2s1	9.81 µM	16.9 µM	6.93 µM	13.4 µM	–	–	10.2 µM	19.9 µM	–	–	7.41 µM	24.4 µM	12.3 µM	39.2 µM	16.9 µM	47.4 µM	38.2 µM	25.5 µM	15.1 µM	12.1 µM
CC(=O)OCC1OC([S-])C(OC(C)=O)C(OC(C)=O)C1OC(C)=O.CC[PH+](CC)CC.CC[PH+](CC)CC.[Au].[Au] (stereo not given)	–	–	0.165 µM	0.452 µM	–	–	0.306 µM	1.09 µM	0.397 µM	1.7 µM	0.207 µM	0.669 µM	0.138 µM	0.761 µM	0.163 µM	0.52 µM	0.493 µM	0.987 µM	0.199 µM	0.292 µM
